Assay results taken from publication PMC9229843, “Cancer-Related Somatic Mutations in Transmembrane Helices Alter Adenosine A1 Receptor Pharmacology” (Molecules, 2022).
Residue numbers refer to the chain shown, from its start.

Columns and labels:
Experiment in all cases: yeast liquid growth assay
Format in all cases: cell-based
hA1AR R122Q^4.40 = molecular target: T1, hA1AR R122Q^4.40 (Homo sapiens, UniProt P30542, R122Q); conditions: ratio over basal activity of wild type hA1AR, 7 mM 3-AT
T1 construct: expressed in transfected cells; host or cells: S. cerevisiae MMY24
T1 sequence (P30542 1-326 R122Q): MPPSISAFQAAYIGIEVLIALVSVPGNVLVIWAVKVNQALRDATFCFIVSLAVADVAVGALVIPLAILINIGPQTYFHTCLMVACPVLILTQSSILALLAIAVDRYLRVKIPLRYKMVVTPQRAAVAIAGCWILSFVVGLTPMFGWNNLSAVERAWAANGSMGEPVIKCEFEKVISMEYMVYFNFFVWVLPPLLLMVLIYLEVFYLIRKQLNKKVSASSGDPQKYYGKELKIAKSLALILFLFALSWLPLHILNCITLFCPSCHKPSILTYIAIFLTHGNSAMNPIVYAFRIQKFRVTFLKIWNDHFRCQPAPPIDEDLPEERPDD
Protocol: (§1) The plasmids, pDT-PGK_hA1AR, containing either wild type or mutated hA1AR were transformed into a MMY24 S. cerevisiae strain following the lithium acetate procedure.
(§2) In order to characterize the mutant hA1ARs, liquid growth assays in 96-well plates were performed to obtain concentration–growth curves as previously described. […] The overnight cultures were then diluted to 40,000 cells/mL (OD600 ≈ 0.02) in a selective medium without uracil, leucine, and histidine (YNB-ULH). For the determination of constitutive activity, 50 μL of yeast cells and 150 μL of YNB-ULH medium containing different concentrations of 3-AT and 0.8 IU/mL ADA were then added to each well. To obtain concentration–growth curves, 2 μL of various concentrations of ligands, 50 μL of yeast cells, and 150 μL of YNB-ULH medium containing 7 mM 3-AT and 0.8 IU/mL ADA were then added to each well. After incubation at 30 °C for 35 h in a Genios plate reader (TECAN, Zürich, Switzerland) with shaking for 1 min at 300 rpm every 10 min, the optical density was measured at a wavelength of 595 nm, which represented the level of yeast cell growth.
(§3) All experimental data were analyzed by GraphPad Prism 7.0 or 8.0 (GraphPad Software Inc., San Diego, CA, USA). Data from yeast liquid growth and [^35S]GTPγS binding assays were analyzed by non-linear regression using “log (agonist) vs. response (three parameters)” or “log (inhibitor) vs. response (three parameters)” to obtain potency (EC50), inhibitory potency (IC50), and efficacy (Emax or Imax) values. The radioligand displacement curves were obtained from a statistically preferred one-site or two-site binding model. pKi values were calculated from pIC50 values using the Cheng–Prusoff equation, where KD values were obtained from the homologous competition assays from this study and calculated by non-linear regression using “one site–homologous” [62].

hA1AR T257P^6.58 = molecular target: T2, hA1AR T257P^6.58 (Homo sapiens, UniProt P30542, T257P); conditions: result in words
T2 construct: expressed in transfected cells; host or cells: S. cerevisiae MMY24
T2 sequence (P30542 1-326 T257P): T1 sequence (P30542 1-326 R122Q) with Q122R, T257P
Protocol: as §1, §2, §3

hA1AR A52V^2.47 = molecular target: T3, hA1AR A52V^2.47 (Homo sapiens, UniProt P30542, A52V)
T3 construct: expressed in transfected cells; host or cells: S. cerevisiae MMY24
T3 sequence (P30542 1-326 A52V): T1 sequence (P30542 1-326 R122Q) with A52V, Q122R
Protocol: as §1, §2, §3

hA1AR L134F^4.52 = molecular target: T4, hA1AR L134F^4.52 (Homo sapiens, UniProt P30542, L134F); conditions: result in words
T4 sequence (P30542 1-326 L134F): T1 sequence (P30542 1-326 R122Q) with Q122R, L134F
Protocol: as §1, §2, §3

hA1AR H78L^3.23 = molecular target: T5, hA1AR H78L^3.23 (Homo sapiens, UniProt P30542, H78L)
T5 sequence (P30542 1-326 H78L): T1 sequence (P30542 1-326 R122Q) with H78L, Q122R
Protocol: as §1, §2, §3

## OC[C@H]1O[C@@H](n2cnc3c(NC4CCCC4)ncnc32)[C@H](O)[C@@H]1O [CPA, N^6-cyclopentyladenosine]
hA1AR R122Q^4.40
  Emax: 4.67 ± 0.22
hA1AR T257P^6.58
  agonist-induced receptor activation: could not be activated
hA1AR A52V^2.47
  decrease in potency versus wild type hA1AR: more than 400 fold
hA1AR L134F^4.52
  agonist-induced receptor activation: could not be activated
hA1AR H78L^3.23; ratio over basal activity of wild type hA1AR, 7 mM 3-AT
  Emax: 4.15 ± 0.17
hA1AR H78L^3.23; result in words
  agonist-induced receptor activation: further activation could not be obtained
